# Patent publication US8461305B2, “L-fucose α1→6 specific lectin” (J-Oil Mills, Inc., priority 2008, dated 2013)
# B1: Aleuria aurantia lectin (protein)
# chain: PTEFLYTSKIAAISWAATGGRQQRVYFQDLNGKIREAQRGGDNPWTGGSSQNVIGEAKLFSPLAAVTWKSAQGIQIRVYCVNKDNILSEFVYDGSKWITGQLGSVGVKVGSNSKLAALQWGGSESAPPNIRVYYQKSNGSGSSIHEYVWSGKWTAGASFGSTVPGTGIGATAIGPGRLRIYYQATDNKIREHCWDSNSWYVGGFSASASAGVSIAAISWGSTPNIRVYWQKGREELYEAAYGGSWNTPGQIKDASRPTPSLPDTFIAANSSGNIDISVFFQASGVSLQQWQWISGKGWSIGAVVPTGTPAGW
# Assay: frontal affinity chromatography (FAC), association constant to PA sugar chains without L-fucose
# Format: binding
# Settings: for association constant Ka: 25 degrees C.
# Outline: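 Lectin coupled via primary amines to NHS-activated sepharose in a miniature column, run in TBS (pH 7.4) at 0.125 ml/min and 25 degrees C. PA sugar chains (3.75 nM or 7.5 nM) applied in excess, with elution monitored by fluorescence (ex 310/em 380 nm). Ka calculated from front-end delay (V−Vo) versus PA rhamnose and effective ligand amount (Bt).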
# [1] = Sugar chain No. 728 (as listed in Table 7)
molecule,measurement,setting,value
"Stropharia rugosoannulata lectin [SRL, novel L-fucose α1→6 specific lectin purified from the mushroom Stropharia rugosoannulata]",binding to sugar chain not having L-fucose,FAC,not bound
same,association constant Ka,Sugar chain No. 001,<1000 M⁻¹
same,association constant Ka,Sugar chain No. 002,<1000 M⁻¹
same,association constant Ka,Sugar chain No. 003,<1000 M⁻¹
same,association constant Ka,Sugar chain No. 004,<1000 M⁻¹
same,association constant Ka,Sugar chain No. 005,<1000 M⁻¹
same,association constant Ka,Sugar chain No. 006,<1000 M⁻¹
same,association constant Ka,Sugar chain No. 007,<1000 M⁻¹
same,association constant Ka,Sugar chain No. 008,<1000 M⁻¹
same,association constant Ka,Sugar chain No. 009,<1000 M⁻¹
same,association constant Ka,Sugar chain No. 010,<1000 M⁻¹
same,association constant Ka,Sugar chain No. 011,<1000 M⁻¹
same,association constant Ka,Sugar chain No. 012,<1000 M⁻¹
same,association constant Ka,Sugar chain No. 013,<1000 M⁻¹
same,association constant Ka,Sugar chain No. 014,<1000 M⁻¹
same,association constant Ka,Sugar chain No. 101,<1000 M⁻¹
same,association constant Ka,Sugar chain No. 103,<1000 M⁻¹
same,association constant Ka,Sugar chain No. 104,<1000 M⁻¹
same,association constant Ka,Sugar chain No. 105,<1000 M⁻¹
same,association constant Ka,Sugar chain No. 107,<1000 M⁻¹
same,association constant Ka,Sugar chain No. 108,<1000 M⁻¹
same,association constant Ka,Sugar chain No. 301,<1000 M⁻¹
same,association constant Ka,Sugar chain No. 304,<1000 M⁻¹
same,association constant Ka,Sugar chain No. 305,<1000 M⁻¹
same,association constant Ka,Sugar chain No. 307,<1000 M⁻¹
same,association constant Ka,Sugar chain No. 308,<1000 M⁻¹
same,association constant Ka,Sugar chain No. 313,<1000 M⁻¹
same,association constant Ka,Sugar chain No. 314,<1000 M⁻¹
same,association constant Ka,Sugar chain No. 323,<1000 M⁻¹
same,association constant Ka,Sugar chain No. 501,<1000 M⁻¹
same,association constant Ka,Sugar chain No. 502,<1000 M⁻¹
same,association constant Ka,Sugar chain No. 503,<1000 M⁻¹
same,association constant Ka,Sugar chain No. 504,<1000 M⁻¹
same,association constant Ka,Sugar chain No. 701,<1000 M⁻¹
same,association constant Ka,Sugar chain No. 702,<1000 M⁻¹
same,association constant Ka,Sugar chain No. 703,<1000 M⁻¹
same,association constant Ka,Sugar chain No. 704,<1000 M⁻¹
same,association constant Ka,Sugar chain No. 705,<1000 M⁻¹
same,association constant Ka,Sugar chain No. 706,<1000 M⁻¹
same,association constant Ka,Sugar chain No. 707,<1000 M⁻¹
same,association constant Ka,Sugar chain No. 708,<1000 M⁻¹
same,association constant Ka,Sugar chain No. 709,<1000 M⁻¹
same,association constant Ka,Sugar chain No. 710,<1000 M⁻¹
same,association constant Ka,Sugar chain No. 711,<1000 M⁻¹
same,association constant Ka,Sugar chain No. 712,<1000 M⁻¹
same,association constant Ka,Sugar chain No. 713,<1000 M⁻¹
same,association constant Ka,Sugar chain No. 715,<1000 M⁻¹
same,association constant Ka,Sugar chain No. 716,<1000 M⁻¹
same,association constant Ka,Sugar chain No. 717,<1000 M⁻¹
same,association constant Ka,Sugar chain No. 724,<1000 M⁻¹
same,association constant Ka,Sugar chain No. 725,<1000 M⁻¹
same,association constant Ka,[1],<1000 M⁻¹
same,association constant Ka,Sugar chain No. 732,<1000 M⁻¹
same,association constant Ka,Sugar chain No. 733,<1000 M⁻¹
same,association constant Ka,Sugar chain No. 734,<1000 M⁻¹
same,association constant Ka,Sugar chain No. 735,<1000 M⁻¹
same,association constant Ka,Sugar chain No. 736,<1000 M⁻¹
same,association constant Ka,Sugar chain No. 737,<1000 M⁻¹
same,association constant Ka,Sugar chain No. 738,<1000 M⁻¹
same,association constant Ka,Sugar chain No. 901,<1000 M⁻¹
same,association constant Ka,Sugar chain No. 902,<1000 M⁻¹
same,association constant Ka,Sugar chain No. 903,<1000 M⁻¹
same,association constant Ka,Sugar chain No. 905,<1000 M⁻¹
same,association constant Ka,Sugar chain No. 906,<1000 M⁻¹
same,association constant Ka,Sugar chain No. 907,<1000 M⁻¹
B1,association constant Ka,Sugar chain No. 001,<1000 M⁻¹
same,association constant Ka,Sugar chain No. 002,<1000 M⁻¹
same,association constant Ka,Sugar chain No. 003,<1000 M⁻¹
same,association constant Ka,Sugar chain No. 004,<1000 M⁻¹
same,association constant Ka,Sugar chain No. 005,<1000 M⁻¹
same,association constant Ka,Sugar chain No. 006,<1000 M⁻¹
same,association constant Ka,Sugar chain No. 007,<1000 M⁻¹
same,association constant Ka,Sugar chain No. 008,<1000 M⁻¹
same,association constant Ka,Sugar chain No. 009,<1000 M⁻¹
same,association constant Ka,Sugar chain No. 010,<1000 M⁻¹
same,association constant Ka,Sugar chain No. 011,<1000 M⁻¹
same,association constant Ka,Sugar chain No. 012,<1000 M⁻¹
same,association constant Ka,Sugar chain No. 013,<1000 M⁻¹
same,association constant Ka,Sugar chain No. 014,<1000 M⁻¹
same,association constant Ka,Sugar chain No. 101,<1000 M⁻¹
same,association constant Ka,Sugar chain No. 103,<1000 M⁻¹
same,association constant Ka,Sugar chain No. 104,<1000 M⁻¹
same,association constant Ka,Sugar chain No. 105,<1000 M⁻¹
same,association constant Ka,Sugar chain No. 107,<1000 M⁻¹
same,association constant Ka,Sugar chain No. 108,<1000 M⁻¹
same,association constant Ka,Sugar chain No. 301,<1000 M⁻¹
same,association constant Ka,Sugar chain No. 304,<1000 M⁻¹
same,association constant Ka,Sugar chain No. 305,<1000 M⁻¹
same,association constant Ka,Sugar chain No. 307,<1000 M⁻¹
same,association constant Ka,Sugar chain No. 308,<1000 M⁻¹
same,association constant Ka,Sugar chain No. 313,<1000 M⁻¹
same,association constant Ka,Sugar chain No. 314,<1000 M⁻¹
same,association constant Ka,Sugar chain No. 323,<1000 M⁻¹
same,association constant Ka,Sugar chain No. 501,<1000 M⁻¹
same,association constant Ka,Sugar chain No. 502,<1000 M⁻¹
same,association constant Ka,Sugar chain No. 503,<1000 M⁻¹
same,association constant Ka,Sugar chain No. 504,<1000 M⁻¹
same,association constant Ka,Sugar chain No. 701,<1000 M⁻¹
same,association constant Ka,Sugar chain No. 702,<1000 M⁻¹
same,association constant Ka,Sugar chain No. 703,<1000 M⁻¹
same,association constant Ka,Sugar chain No. 704,<1000 M⁻¹
same,association constant Ka,Sugar chain No. 705,<1000 M⁻¹
same,association constant Ka,Sugar chain No. 706,<1000 M⁻¹
same,association constant Ka,Sugar chain No. 707,<1000 M⁻¹
same,association constant Ka,Sugar chain No. 708,<1000 M⁻¹
same,association constant Ka,Sugar chain No. 709,<1000 M⁻¹
same,association constant Ka,Sugar chain No. 710,<1000 M⁻¹
same,association constant Ka,Sugar chain No. 711,<1000 M⁻¹
same,association constant Ka,Sugar chain No. 712,<1000 M⁻¹
same,association constant Ka,Sugar chain No. 713,<1000 M⁻¹
same,association constant Ka,Sugar chain No. 715,<1000 M⁻¹
same,association constant Ka,Sugar chain No. 716,<1000 M⁻¹
same,association constant Ka,Sugar chain No. 717,<1000 M⁻¹
same,association constant Ka,Sugar chain No. 724,<1000 M⁻¹
same,association constant Ka,Sugar chain No. 725,<1000 M⁻¹
same,association constant Ka,[1],<1000 M⁻¹
same,association constant Ka,Sugar chain No. 732,<1000 M⁻¹
same,association constant Ka,Sugar chain No. 733,<1000 M⁻¹
same,association constant Ka,Sugar chain No. 734,<1000 M⁻¹
same,association constant Ka,Sugar chain No. 735,<1000 M⁻¹
same,association constant Ka,Sugar chain No. 736,<1000 M⁻¹
same,association constant Ka,Sugar chain No. 737,<1000 M⁻¹
same,association constant Ka,Sugar chain No. 738,<1000 M⁻¹
same,association constant Ka,Sugar chain No. 901,<1000 M⁻¹
same,association constant Ka,Sugar chain No. 902,<1000 M⁻¹
same,association constant Ka,Sugar chain No. 903,<1000 M⁻¹
same,association constant Ka,Sugar chain No. 905,<1000 M⁻¹
same,association constant Ka,Sugar chain No. 906,<1000 M⁻¹
same,association constant Ka,Sugar chain No. 907,<1000 M⁻¹
